Assay [1] concerns XBP1 mRNA splicing. Description: XBP1 splicing in ER-stressed INS-1 cells. The format is cell-based, rat. The settings on record: DTT, 20 μM compound. As to the method:
RNA Isolation, Quantitative Real-Time PCR, and Primers
(§1) INS-1 or isogenic IRE1α-overexpressing INS-1 cells were plated onto Poly-D-Lysine coated tissue culture plate and grown for 48 hrs. Inhibitors or DMSO were added to the media and incubated for 1 hour at 37° C. with 5% CO2 prior to addition of ER stress agents or Dox as indicated. RNA was isolated from whole cells using either QIAGEN RNeasy Mini kits or Trizol (Invitrogen) and reverse transcribed as above to obtain total cDNA. Then, XBP-1 primers were used to amplify an XBP-1 amplicon spanning the 26 nt intron from the cDNA samples in a regular 3-step PCR. Thermal cycles were: 5 min at 95° C., 30 cycles of 30 s at 95° C., 30 s at 60° C., and 1 min at 72° C., followed by 72° C. for 15 min, and hold at 4° C. Primers used for XBP-1 mRNA splicing were as follows: sense primer XBP1.3 S (5′ […]-3′ (SEQ ID NO:2)) and antisense primer XBP1.2AS (5′-[…]-3′ (SEQ ID NO:3)). PCR fragments were then digested by PstI, resolved on 3% agarose gels, stained with EtBr and quantified by densitometry using ImageJ (NIH). For standard mRNA detection, generally […] total RNA was reverse transcribed using the QuantiTect Reverse Transcription Kit (QIAGEN). For qPCR, we used SYBR green (QIAGEN) and StepOnePlus Real-Time PCR System (Applied Biosystems). Thermal cycles were: 5 min at 95° C., 40 cycles of 15 sec at 95° C., 30 sec at 60° C. […]

For assay [2], the target named is T1, IRE1α* (Homo sapiens, UniProt O75460).
T1 construct: human IRE1α (residues 547-977, IRE1α*) was expressed in SF9 insect cells; His6 (N); made in house; host or cells: Sf9 insect cells (Bac-to-Bac baculovirus)
Description: In vitro RNase activity assay, XBP1-mini substrate cleavage, inhibitor titrations. The settings on record: relative to apo IRE1α*. Format: biochemical. As to the method:
In Vitro RNase Activity Assay Inhibitor Titrations
50 nM IRE1α* was incubated with inhibitor (initial concentration of 10 or 60 μM, three-fold serial dilutions) or DMSO for 30 min in assay buffer (20 mM Tris, 50 mM NaCl, 1 mM MgCl2, 2 mM DTT, 0.05% Triton X-100 (v/v), pH 7.5). Assays were initiated by adding 10 μL of XBP1-mini substrate (5′-Alex647-CAUGUCCGCAGCGCAUG-IowaBlack-FQ-3′ (SEQ ID NO: 1); IDT) to the wells at a final concentration of 200 nM and a final well volume of 30 μL. Fluorescence was detected on a Perkin Elmer Envision Microplate Reader at excitation and emission wavelengths of 650 nm and 665 nm. Dose-response curves were fit using “one-site fit log IC50” parameter using GraphPad Prism analysis software.

For assay [3], the system named is XBP1 mRNA splicing. Description: XBP1 splicing in human islets subjected to ER stress. The format is cell-based. The settings on record: DTT, 20 μM compound. The procedure:
as §1, with “(QIAGEN).” for “(QIAGEN). For qPCR, we used SYBR green (QIAGEN) and StepOnePlus Real-Time PCR System (Applied Biosystems). Thermal cycles were: 5 min at 95° C., 40 cycles of 15 sec at 95° C., 30 sec at 60° C.”
Non-diabetic human islets were obtained and cultured in supplemented Prodo Islet Medium (PIM(S) from Prodo Labs). […] Collected media were analyzed by anti-insulin ELISA (EMD Millipore) and insulin levels were normalized to total protein amount.

SMILES strings stand for the structures.

We go through 1 compound from patent US11884649B2, “IRE1α inhibitors and uses thereof” (The Regents of the University of California, priority 2020, dated 2024).

T1 sequence (O75460 547-977): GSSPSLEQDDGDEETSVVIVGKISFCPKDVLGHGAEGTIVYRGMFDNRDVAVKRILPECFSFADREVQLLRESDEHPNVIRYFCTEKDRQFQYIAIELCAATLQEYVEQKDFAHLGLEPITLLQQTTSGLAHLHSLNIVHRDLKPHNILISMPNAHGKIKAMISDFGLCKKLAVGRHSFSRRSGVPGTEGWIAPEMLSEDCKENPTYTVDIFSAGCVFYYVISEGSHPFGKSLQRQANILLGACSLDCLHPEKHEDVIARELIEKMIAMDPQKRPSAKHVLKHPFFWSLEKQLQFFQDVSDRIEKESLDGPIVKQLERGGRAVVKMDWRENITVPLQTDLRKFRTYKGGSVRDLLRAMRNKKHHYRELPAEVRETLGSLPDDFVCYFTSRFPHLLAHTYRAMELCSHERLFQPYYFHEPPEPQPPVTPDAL

Regarding `O=S(=O)(CC(F)(F)F)Nc1ccc(Oc2ncccc2-c2ccnc(N[C@H]3CCCNC3)n2)c2ccccc12` (stereo in doubt) [PAIR1, 2,2,2-trifluoro-N-(4-(3-(2-(piperidin-3-ylamino)pyrimidin-4-yl)pyridin-2-yloxy)naphthalen-1-yl)ethanesulfonamide], the “XBP1 mRNA splicing” value in assay [1] and in assay [3] was “only weakly inhibited” in each case. In assay [2], the “RNase activity of IRE1α* (in words)” value is given as “partially inhibit”.
